Target: KRas (Homo sapiens, UniProt P01116, G12C)
Assay: KRas degradation in NCI-H2030 cells by Western blot, normalized to GAPDH (data of Table 14)
Assay type: cell-based
Design: host or cells: NCI-H2030
Conditions: for Dmax: NCI-H2030; for Percent Degradation at Indicated Concentration (μM): 0.1: 0.1 μM; for Percent Degradation at Indicated Concentration (μM): H2030
Method in brief: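 KRas/GAPDH band ratio vs DMSO lane gives % degradation; values under 25% were estimated visually, the rest quantitated. Cells are G12C homozygous, serum-free for 24 h, then dosed at 0.3/1/3 μM (0.1% DMSO). VHL-based compounds 24 h, others 72 h.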

Compound | Percent Degradation at Indicated Concentration (μM): 0.3 (H2030 cells, 0.3 μM) | Percent Degradation at Indicated Concentration (μM): 1 (H2030 cells, 1 μM) | Percent Degradation at Indicated Concentration (μM): 3 (H2030 cells, 3 μM) | Dmax (H2030 cells) [%] | Percent Degradation at Indicated Concentration (μM): 0.1 (H2030 cells) | Percent Degradation at Indicated Concentration (μM) (0.3 μM) | Percent Degradation at Indicated Concentration (μM) (1 μM) | Percent Degradation at Indicated Concentration (μM) (3 μM) | Dmax [%]
CCC(=O)N1CCN(c2nc(NCCC(=O)N(C)CCOCCOCCOCC(=O)N[C@H](C(=O)N3C[C@H](O)C[C@H]3C(=O)N[C@@H](C)c3ccc(-c4scnc4C)cc3)C(C)(C)C)nc3c(F)c(-c4cc(O)cc5ccccc45)c(Cl)cc23)CC1 [compound 188, (2S,4R)-1-((2S)-2-(tert-butyl)-18-((6-chloro-8-fluoro-7-(3-hydroxynaphthalen-1-yl)-4-(4-propionylpiperazin-1-yl)quinazolin-2-yl)amino)-15-methyl-4,16-dioxo-6,9,12-trioxa-3,15-diazaoctadecanoyl)-4-hydroxy-N-((S)-1-(4-(4-methylthiazol-5-yl)phenyl)ethyl)pyrrolidine-2-carboxamide] | C (C ≤ 35) | C (C ≤ 35) | C (C ≤ 35) | ≤ 35 |  |  |  |  | 
CCC(=O)N1CCN(c2nc(NCCC(=O)N(C)CCOCCOCCOCCOCC(=O)N[C@H](C(=O)N3C[C@H](O)C[C@H]3C(=O)N[C@@H](C)c3ccc(-c4scnc4C)cc3)C(C)(C)C)nc3c(F)c(-c4cc(O)cc5ccccc45)c(Cl)cc23)CC1 [compound 189, (2S,4R)-1-((2S)-2-(tert-butyl)-21-((6-chloro-8-fluoro-7-(3-hydroxynaphthalen-1-yl)-4-(4-propionylpiperazin-1-yl)quinazolin-2-yl)amino)-18-methyl-4,19-dioxo-6,9,12,15-tetraoxa-3,18-diazahenicosanoyl)-4-hydroxy-N-((S)-1-(4-(4-methylthiazol-5-yl)phenyl)ethyl)pyrrolidine-2-carboxamide] | C (C ≤ 35) | C (C ≤ 35) | C (C ≤ 35) | ≤ 35 |  |  |  |  | 
CCC(=O)N1CCN(c2nc(NCCC(=O)N(C)CCOCCOCCOCCOCCOCC(=O)N[C@H](C(=O)N3C[C@H](O)C[C@H]3C(=O)N[C@@H](C)c3ccc(-c4scnc4C)cc3)C(C)(C)C)nc3c(F)c(-c4cc(O)cc5ccccc45)c(Cl)cc23)CC1 [compound 190, (2S,4R)-1-((2S)-2-(tert-butyl)-24-((6-chloro-8-fluoro-7-(3-hydroxynaphthalen-1-yl)-4-(4-propionylpiperazin-1-yl)quinazolin-2-yl)amino)-21-methyl-4,22-dioxo-6,9,12,15,18-pentaoxa-3,21-diazatetracosanoyl)-4-hydroxy-N-((S)-1-(4-(4-methylthiazol-5-yl)phenyl)ethyl)pyrrolidine-2-carboxamide] | C (C ≤ 35) | C (C ≤ 35) | C (C ≤ 35) | ≤ 35 |  |  |  |  | 
C=CC(=O)N1CCN(c2nc(NCCC(=O)N(C)CCOCC(=O)N[C@H](C(=O)N3C[C@H](O)C[C@H]3C(=O)N[C@@H](C)c3ccc(-c4scnc4C)cc3)C(C)(C)C)nc3c(F)c(-c4cc(O)cc5ccccc45)c(Cl)cc23)CC1 [compound 191, (2S,4R)-1-((2S)-2-(2-(2-(3-((4-(4-acryloylpiperazin-1-yl)-6-chloro-8-fluoro-7-(3-hydroxynaphthalen-1-yl)quinazolin-2-yl)amino)-N-methylpropanamido)ethoxy)acetamido)-3,3-dimethylbutanoyl)-4-hydroxy-N-((S)-1-(4-(4-methylthiazol-5-yl)phenyl)ethyl)pyrrolidine-2-carboxamide] | C (C ≤ 35) | C (C ≤ 35) |  | ≤ 35 | C (C ≤ 35) |  |  |  | 
C=CC(=O)N1CCN(c2nc(NCCC(=O)N(C)CCOCCOCC(=O)N[C@H](C(=O)N3C[C@H](O)C[C@H]3C(=O)N[C@@H](C)c3ccc(-c4scnc4C)cc3)C(C)(C)C)nc3c(F)c(-c4cc(O)cc5ccccc45)c(Cl)cc23)CC1 [compound 192, (2S,4R)-1-((2S)-15-((4-(4-acryloylpiperazin-1-yl)-6-chloro-8-fluoro-7-(3-hydroxynaphthalen-1-yl)quinazolin-2-yl)amino)-2-(tert-butyl)-12-methyl-4,13-dioxo-6,9-dioxa-3,12-diazapentadecanoyl)-4-hydroxy-N-((S)-1-(4-(4-methylthiazol-5-yl)phenyl)ethyl)pyrrolidine-2-carboxamide] | C (C ≤ 35) | C (C ≤ 35) |  | ≤ 35 | C (C ≤ 35) |  |  |  | 
C=CC(=O)N1CCN(c2nc(NCCC(=O)N(C)CCOCCOCCOCC(=O)N[C@H](C(=O)N3C[C@H](O)C[C@H]3C(=O)N[C@@H](C)c3ccc(-c4scnc4C)cc3)C(C)(C)C)nc3c(F)c(-c4cc(O)cc5ccccc45)c(Cl)cc23)CC1 [compound 193, (2S,4R)-1-((2S)-18-((4-(4-acryloylpiperazin-1-yl)-6-chloro-8-fluoro-7-(3-hydroxynaphthalen-1-yl)quinazolin-2-yl)amino)-2-(tert-butyl)-15-methyl-4,16-dioxo-6,9,12-trioxa-3,15-diazaoctadecanoyl)-4-hydroxy-N-((S)-1-(4-(4-methylthiazol-5-yl)phenyl)ethyl)pyrrolidine-2-carboxamide] | C (C ≤ 35) | C (C ≤ 35) | C (C ≤ 35) | ≤ 35 |  |  |  |  | 
C=CC(=O)N1CCN(c2nc(NCCC(=O)N(C)CCOCCOCCOCCOCC(=O)N[C@H](C(=O)N3C[C@H](O)C[C@H]3C(=O)N[C@@H](C)c3ccc(-c4scnc4C)cc3)C(C)(C)C)nc3c(F)c(-c4cc(O)cc5ccccc45)c(Cl)cc23)CC1 [compound 194, (2S,4R)-1-((2S)-21-((4-(4-acryloylpiperazin-1-yl)-6-chloro-8-fluoro-7-(3-hydroxynaphthalen-1-yl)quinazolin-2-yl)amino)-2-(tert-butyl)-18-methyl-4,19-dioxo-6,9,12,15-tetraoxa-3,18-diazahenicosanoyl)-4-hydroxy-N-((S)-1-(4-(4-methylthiazol-5-yl)phenyl)ethyl)pyrrolidine-2-carboxamide] | C (C ≤ 35) | C (C ≤ 35) | C (C ≤ 35) | ≤ 35 |  |  |  |  | 
C=CC(=O)N1CCN(c2nc(NCCC(=O)N(C)CCOCCOCCOCCOCCOCC(=O)N[C@H](C(=O)N3C[C@H](O)C[C@H]3C(=O)N[C@@H](C)c3ccc(-c4scnc4C)cc3)C(C)(C)C)nc3c(F)c(-c4cc(O)cc5ccccc45)c(Cl)cc23)CC1 [compound 197, (2S,4R)-1-((2S)-24-((4-(4-acryloylpiperazin-1-yl)-6-chloro-8-fluoro-7-(3-hydroxynaphthalen-1-yl)quinazolin-2-yl)amino)-2-(tert-butyl)-21-methyl-4,22-dioxo-6,9,12,15,18-pentaoxa-3,21-diazatetracosanoyl)-4-hydroxy-N-((S)-1-(4-(4-methylthiazol-5-yl)phenyl)ethyl)pyrrolidine-2-carboxamide] | C (C ≤ 35) | C (C ≤ 35) | C (C ≤ 35) | ≤ 35 |  |  |  |  | 
C=CC(=O)N1CCN(c2nc(NCCC(=O)N(C)CCOCCOCCOCCOCCOCCOCCOCCOCCOCCOCC(=O)N[C@H](C(=O)N3C[C@H](O)C[C@H]3C(=O)N[C@@H](C)c3ccc(-c4scnc4C)cc3)C(C)(C)C)nc3c(F)c(-c4cc(O)cc5ccccc45)c(Cl)cc23)CC1 [compound 198, (2S,4R)-1-((2S)-39-((4-(4-acryloylpiperazin-1-yl)-6-chloro-8-fluoro-7-(3-hydroxynaphthalen-1-yl)quinazolin-2-yl)amino)-2-(tert-butyl)-36-methyl-4,37-dioxo-6,9,12,15,18,21,24,27,30,33-decaoxa-3,36-diazanonatriacontanoyl)-4-hydroxy-N-((S)-1-(4-(4-methylthiazol-5-yl)phenyl)ethyl)pyrrolidine-2-carboxamide] |  |  |  |  |  | C (Percent Degradation: C ≤ 35) | C (Percent Degradation: C ≤ 35) | C (Percent Degradation: C ≤ 35) | ≤ 35
C=CC(=O)N1CCN(c2nc(NCCC(=O)N(C)CCOCCOCCOCCOCC(=O)N[C@H](C(=O)N3C[C@@H](O)C[C@H]3C(=O)N[C@@H](C)c3ccc(-c4scnc4C)cc3)C(C)(C)C)nc3c(F)c(-c4cc(O)cc5ccccc45)c(Cl)cc23)CC1 [compound 199, (2S,4S)-1-((2S)-21-((4-(4-acryloylpiperazin-1-yl)-6-chloro-8-fluoro-7-(3-hydroxynaphthalen-1-yl)quinazolin-2-yl)amino)-2-(tert-butyl)-18-methyl-4,19-dioxo-6,9,12,15-tetraoxa-3,18-diazahenicosanoyl)-4-hydroxy-N-((S)-1-(4-(4-methylthiazol-5-yl)phenyl)ethyl)pyrrolidine-2-carboxamide] |  |  |  |  |  | C (Percent Degradation: C ≤ 35) | C (Percent Degradation: C ≤ 35) | C (Percent Degradation: C ≤ 35) | ≤ 35
CC(=O)N1CCN(c2nc(NCCC(=O)N(C)CCOCC(=O)N[C@H](C(=O)N3C[C@H](O)C[C@H]3C(=O)N[C@@H](C)c3ccc(-c4scnc4C)cc3)C(C)(C)C)nc3c(F)c(-c4cc(O)cc5ccccc45)c(Cl)cc23)CC1 [compound 200, (2S,4R)-1-((2S)-2-(2-(2-(3-((4-(4-acetylpiperazin-1-yl)-6-chloro-8-fluoro-7-(3-hydroxynaphthalen-1-yl)quinazolin-2-yl)amino)-N-methylpropanamido)ethoxy)acetamido)-3,3-dimethylbutanoyl)-4-hydroxy-N-((S)-1-(4-(4-methylthiazol-5-yl)phenyl)ethyl)pyrrolidine-2-carboxamide] |  |  |  |  |  | C (Percent Degradation: C ≤ 35) | C (Percent Degradation: C ≤ 35) | C (Percent Degradation: C ≤ 35) | ≤ 35
